# Activity calls are given as the source filed them.
# Legend:
# [1] = target: Botulinum neurotoxin type F (Clostridium botulinum, UniProt P30996); assay: High-throughput multiplex microsphere dose response for inhibitors of toxin protease, specifically Botulinum neurotoxin light chain F protease, compounds from Cherry Pick 02.; assay type: functional; settings: read-out: EC50_MICROM
# [2] = target: Peroxisome proliferator-activated receptor gamma/Nuclear receptor coactivator 1 (Homo sapiens, UniProt P37231); assay: TR-FRET dose response biochemical High Throughput Screening assay for agonists of the steroid receptor coactivator 1 (SRC-1) recruitment by the peroxisome proliferator-activated receptor gamma (PPAR gamma): non-selective agonists. [Related pubchem assays (depositor defined):AID1300, AID1808, AID504735, AID631]; assay type: protein assay
# [3] = target: Peroxisome proliferator-activated receptor gamma/Nuclear receptor coactivator 2 (Homo sapiens, UniProt P37231); assay: (§1) TR-FRET dose response biochemical High Throughput Screening assay for agonists of the steroid receptor coactivator 2 (SRC-2) recruitment by the peroxisome proliferator-activated receptor gamma (PPAR gamma): non-selective agonists. [Related pubchem assays: 1297, 1032 ]; assay type: functional
# [4] = target: Botulinum neurotoxin type A (Clostridium botulinum (strain Hall / ATCC 3502 / NCTC 13319 / Type A), UniProt P0DPI1); assay: High-throughput multiplex microsphere dose response for inhibitors of toxin protease, specifically Botulinum neurotoxin light chain A protease, compounds from Cherry Pick 02.; assay type: functional; settings: read-out: EC50_MICROM
# [5] = target: Peroxisome proliferator-activated receptor gamma/Nuclear receptor coactivator 3 (Homo sapiens, UniProt P37231); assay: as §1, with “3 (SRC-3)” for “2 (SRC-2)”, “1301 (Confirmation screen.), 1048 (Primary screen.)]” for “1297, 1032 ]”; assay type: functional
# Protein S100-A4 = Protein S100-A4 (Homo sapiens, UniProt P26447); assay: human S100A4 peptide interaction inhibition curves – biochemical, fluorescence polarization, cherry-picked hits, dose response (AID 687001); assay type: functional
# [6] = target: Tyrosine-protein kinase ABL1 (Homo sapiens, UniProt P00519); assay type: functional
# [7] = target: Vascular endothelial growth factor receptor 2 (Homo sapiens, UniProt P35968); assay type: functional
# [8] = target: Sphingosine 1-phosphate receptor 2 (Homo sapiens, UniProt O95136); assay: Late-stage fluorescence-based dose-response cell-based counterscreen assay to identify agonists of the Sphingosine 1-Phosphate Receptor 3 (S1P3): Sphingosine 1-Phosphate Receptor 2 (S1P2) agonist assay.; assay type: functional
# [9] = target: T1, Sphingosine 1-phosphate receptor 4 (Homo sapiens, UniProt O95977); assay: Late-stage fluorescence-based dose-response cell-based counterscreen assay to identify agonists of the Sphingosine 1-Phosphate Receptor 3 (S1P3): Sphingosine 1-Phosphate Receptor 4 (S1P4) agonist assay.; assay type: functional
# T1 sequence (O95977 whole entry): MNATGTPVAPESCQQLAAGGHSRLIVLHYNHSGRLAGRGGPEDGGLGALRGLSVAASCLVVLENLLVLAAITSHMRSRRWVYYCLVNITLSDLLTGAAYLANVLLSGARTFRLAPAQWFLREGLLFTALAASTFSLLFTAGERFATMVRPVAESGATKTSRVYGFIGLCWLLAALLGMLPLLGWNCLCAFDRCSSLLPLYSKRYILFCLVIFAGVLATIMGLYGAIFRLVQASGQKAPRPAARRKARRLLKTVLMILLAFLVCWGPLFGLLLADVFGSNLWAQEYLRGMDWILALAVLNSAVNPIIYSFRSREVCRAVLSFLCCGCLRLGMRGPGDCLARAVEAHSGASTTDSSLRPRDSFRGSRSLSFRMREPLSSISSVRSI
# [10] = target: T2, DNA dC->dU-editing enzyme APOBEC-3G (Homo sapiens, UniProt Q9HC16); assay: inhibition of APOBEC3G ssDNA deamination – biochemical, fluorescence, single-stranded DNA substrate, SAR follow-up (AID 602136); assay type: functional; settings: read-out: IC50_Mean
# [11] = target: T3, Mitochondrial peptide methionine sulfoxide reductase (Bos taurus, UniProt P54149); assay: Absorbance-based biochemical high throughput dose response assay for activators of Methionine sulfoxide reductase A (MsrA).; assay type: functional
# T3 sequence (P54149 whole entry): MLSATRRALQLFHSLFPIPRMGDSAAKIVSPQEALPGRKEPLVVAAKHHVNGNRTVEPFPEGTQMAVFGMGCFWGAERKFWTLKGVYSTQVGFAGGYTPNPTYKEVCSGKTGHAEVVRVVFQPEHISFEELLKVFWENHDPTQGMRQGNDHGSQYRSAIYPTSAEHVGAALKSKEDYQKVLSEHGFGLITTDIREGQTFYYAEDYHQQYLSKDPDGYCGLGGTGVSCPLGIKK
# [12] = target: T2, DNA dC->dU-editing enzyme APOBEC-3G; assay: Dose Response confirmation of small molecule APOBEC3G DNA Deaminase Inhibitors via a fluorescence-based single-stranded DNA deaminase assay. [Related pubchem assays (depositor defined):AID493012, AID493028]; assay type: functional
# [13] = target: T4, DNA dC->dU-editing enzyme APOBEC-3A (Homo sapiens, UniProt P31941); assay: SAR analysis of small molecule inhibitors of APOBEC3A DNA Deaminase via a fluorescence-based single-stranded DNA deaminase assay - Set 2.; assay type: functional; settings: read-out: IC50_Mean
# [14] = target: T4, DNA dC->dU-editing enzyme APOBEC-3A; assay: A3A deaminase inhibition for selectivity – biochemical, dose response (AID 504722); assay type: functional
# [15] = target: T4, DNA dC->dU-editing enzyme APOBEC-3A; assay: SAR analysis of small molecule inhibitors of APOBEC3A DNA Deaminase via a fluorescence-based single-stranded DNA deaminase assay.; assay type: functional; settings: read-out: IC50_Mean
# [16] = target: T2, DNA dC->dU-editing enzyme APOBEC-3G; assay: SAR analysis of small molecule inhibitors of APOBEC3G DNA Deaminase via a fluorescence-based single-stranded DNA deaminase assay - Set 2.; assay type: functional; settings: read-out: IC50_Mean
# [17] = target: Dual specificity tyrosine-phosphorylation-regulated kinase 4 (Homo sapiens, UniProt Q9NR20); assay type: functional
# [18] = target: Protein kinase C gamma type (Homo sapiens, UniProt P05129); assay type: functional
# [19] = target: Testis-specific serine/threonine-protein kinase 2 (Homo sapiens, UniProt Q96PF2); assay type: functional;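 also: part of the Navigating the Kinome panel, target entry STK22B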
# [20] = target: Lymphokine-activated killer T-cell-originated protein kinase (Homo sapiens, UniProt Q96KB5); assay type: functional;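 also: value comes from a kinase panel screen in which TOPK was one of the panel members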
# [21] = target: Eukaryotic elongation factor 2 kinase (Homo sapiens, UniProt O00418); assay type: functional
# [22] = target: Dual specificity tyrosine-phosphorylation-regulated kinase 3 (Homo sapiens, UniProt O43781); assay type: functional;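 also: measured as one member of a broad kinase panel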
# [23] = target: MAP kinase-activated protein kinase 3 (Homo sapiens, UniProt Q16644); assay type: functional;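 also: value comes from a kinome-wide profiling panel in which MAPKAPK3 is one of the panel members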
# [24] = target: Cell division cycle 7-related protein kinase (Homo sapiens, UniProt O00311); assay type: functional;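 also: value obtained from a kinome-wide kinase panel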
# Chain of Cell division cycle 7-related protein kinase (O00311 whole entry): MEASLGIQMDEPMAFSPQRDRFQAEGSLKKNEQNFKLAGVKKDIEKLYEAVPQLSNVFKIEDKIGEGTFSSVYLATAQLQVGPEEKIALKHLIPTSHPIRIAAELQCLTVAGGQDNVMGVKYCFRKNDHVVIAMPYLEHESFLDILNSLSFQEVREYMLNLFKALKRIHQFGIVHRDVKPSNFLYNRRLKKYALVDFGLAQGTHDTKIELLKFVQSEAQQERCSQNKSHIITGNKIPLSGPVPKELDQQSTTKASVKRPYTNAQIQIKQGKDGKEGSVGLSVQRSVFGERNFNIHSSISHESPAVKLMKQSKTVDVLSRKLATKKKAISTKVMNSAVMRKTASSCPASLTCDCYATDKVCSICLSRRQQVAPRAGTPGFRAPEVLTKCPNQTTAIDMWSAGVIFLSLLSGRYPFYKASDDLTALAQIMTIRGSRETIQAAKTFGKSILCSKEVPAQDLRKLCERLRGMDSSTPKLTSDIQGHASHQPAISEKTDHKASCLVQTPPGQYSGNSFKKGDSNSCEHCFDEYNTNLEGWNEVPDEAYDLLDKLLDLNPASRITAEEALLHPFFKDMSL
# T4 sequence (P31941 whole entry): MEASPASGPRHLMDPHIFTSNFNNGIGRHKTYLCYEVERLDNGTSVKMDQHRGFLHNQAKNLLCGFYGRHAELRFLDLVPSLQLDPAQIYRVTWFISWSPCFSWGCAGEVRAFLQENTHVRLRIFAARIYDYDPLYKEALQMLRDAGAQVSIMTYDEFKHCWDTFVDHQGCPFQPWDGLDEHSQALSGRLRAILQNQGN
# T2 sequence (Q9HC16 whole entry): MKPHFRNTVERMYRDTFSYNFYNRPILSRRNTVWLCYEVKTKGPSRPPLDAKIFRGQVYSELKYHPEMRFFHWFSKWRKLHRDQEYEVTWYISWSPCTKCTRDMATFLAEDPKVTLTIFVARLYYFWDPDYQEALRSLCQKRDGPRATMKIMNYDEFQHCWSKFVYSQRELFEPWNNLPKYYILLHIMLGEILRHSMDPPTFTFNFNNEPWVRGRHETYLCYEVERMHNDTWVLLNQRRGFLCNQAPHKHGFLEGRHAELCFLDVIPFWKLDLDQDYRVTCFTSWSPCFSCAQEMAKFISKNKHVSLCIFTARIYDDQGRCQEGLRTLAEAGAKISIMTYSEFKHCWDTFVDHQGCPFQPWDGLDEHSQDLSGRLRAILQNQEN
# Chain of Testis-specific serine/threonine-protein kinase 2 (Q96PF2 whole entry): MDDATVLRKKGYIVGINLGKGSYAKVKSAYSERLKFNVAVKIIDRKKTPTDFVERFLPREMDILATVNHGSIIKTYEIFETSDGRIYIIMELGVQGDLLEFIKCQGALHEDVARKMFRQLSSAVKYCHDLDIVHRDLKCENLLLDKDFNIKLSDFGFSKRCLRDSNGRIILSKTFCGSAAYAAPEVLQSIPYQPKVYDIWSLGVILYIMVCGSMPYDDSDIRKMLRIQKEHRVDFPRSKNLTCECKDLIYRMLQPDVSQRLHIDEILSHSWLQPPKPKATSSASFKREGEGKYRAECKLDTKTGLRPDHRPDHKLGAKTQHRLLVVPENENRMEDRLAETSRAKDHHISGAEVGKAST
# Chain of Eukaryotic elongation factor 2 kinase (O00418 whole entry): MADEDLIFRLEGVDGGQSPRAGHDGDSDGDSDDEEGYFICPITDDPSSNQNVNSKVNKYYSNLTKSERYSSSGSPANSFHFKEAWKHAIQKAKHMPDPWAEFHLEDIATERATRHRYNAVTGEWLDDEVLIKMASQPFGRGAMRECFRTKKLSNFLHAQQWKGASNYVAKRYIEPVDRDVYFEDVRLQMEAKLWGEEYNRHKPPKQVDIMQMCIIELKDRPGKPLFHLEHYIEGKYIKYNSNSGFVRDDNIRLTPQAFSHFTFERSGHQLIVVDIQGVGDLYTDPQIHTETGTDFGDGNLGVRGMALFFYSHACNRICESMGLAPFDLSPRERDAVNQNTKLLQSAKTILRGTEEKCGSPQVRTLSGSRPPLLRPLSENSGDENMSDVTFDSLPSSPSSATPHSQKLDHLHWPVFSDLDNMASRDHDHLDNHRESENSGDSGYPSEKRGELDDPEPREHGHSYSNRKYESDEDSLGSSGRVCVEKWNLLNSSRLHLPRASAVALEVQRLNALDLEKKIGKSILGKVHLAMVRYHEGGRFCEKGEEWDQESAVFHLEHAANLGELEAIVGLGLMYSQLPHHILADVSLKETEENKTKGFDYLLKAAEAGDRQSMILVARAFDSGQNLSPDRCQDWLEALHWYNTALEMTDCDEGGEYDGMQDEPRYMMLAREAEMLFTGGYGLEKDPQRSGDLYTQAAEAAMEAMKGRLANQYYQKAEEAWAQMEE
# Chain of Dual specificity tyrosine-phosphorylation-regulated kinase 4 (Q9NR20 whole entry): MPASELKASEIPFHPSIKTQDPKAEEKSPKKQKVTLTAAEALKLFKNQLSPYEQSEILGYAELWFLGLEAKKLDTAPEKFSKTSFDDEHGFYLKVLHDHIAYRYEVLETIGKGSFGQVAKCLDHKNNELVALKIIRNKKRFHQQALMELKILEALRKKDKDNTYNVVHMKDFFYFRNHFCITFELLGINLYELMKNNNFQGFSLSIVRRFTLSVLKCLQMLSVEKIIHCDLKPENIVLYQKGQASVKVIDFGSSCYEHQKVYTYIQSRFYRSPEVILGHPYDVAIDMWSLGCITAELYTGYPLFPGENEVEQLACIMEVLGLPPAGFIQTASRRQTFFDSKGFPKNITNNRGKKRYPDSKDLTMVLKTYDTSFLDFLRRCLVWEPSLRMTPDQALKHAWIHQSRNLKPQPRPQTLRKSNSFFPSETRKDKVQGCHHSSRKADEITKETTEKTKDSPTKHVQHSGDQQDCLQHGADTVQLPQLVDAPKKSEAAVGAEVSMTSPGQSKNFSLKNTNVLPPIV
# Chain of Botulinum neurotoxin type A (P0DPI1 2-448 limits assumed): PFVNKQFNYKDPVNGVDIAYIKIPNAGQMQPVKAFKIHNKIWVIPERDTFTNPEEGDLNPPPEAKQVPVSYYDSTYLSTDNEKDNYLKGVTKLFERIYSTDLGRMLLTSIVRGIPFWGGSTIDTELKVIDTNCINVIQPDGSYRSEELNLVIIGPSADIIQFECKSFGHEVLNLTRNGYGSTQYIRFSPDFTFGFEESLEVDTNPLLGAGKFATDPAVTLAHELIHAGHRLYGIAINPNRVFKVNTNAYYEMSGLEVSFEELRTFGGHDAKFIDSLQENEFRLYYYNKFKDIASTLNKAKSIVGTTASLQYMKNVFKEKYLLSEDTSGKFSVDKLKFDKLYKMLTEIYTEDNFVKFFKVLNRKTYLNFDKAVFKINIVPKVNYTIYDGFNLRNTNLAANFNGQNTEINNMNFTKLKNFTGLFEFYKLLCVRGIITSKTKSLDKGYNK
# Chain of Vascular endothelial growth factor receptor 2 (P35968 whole entry): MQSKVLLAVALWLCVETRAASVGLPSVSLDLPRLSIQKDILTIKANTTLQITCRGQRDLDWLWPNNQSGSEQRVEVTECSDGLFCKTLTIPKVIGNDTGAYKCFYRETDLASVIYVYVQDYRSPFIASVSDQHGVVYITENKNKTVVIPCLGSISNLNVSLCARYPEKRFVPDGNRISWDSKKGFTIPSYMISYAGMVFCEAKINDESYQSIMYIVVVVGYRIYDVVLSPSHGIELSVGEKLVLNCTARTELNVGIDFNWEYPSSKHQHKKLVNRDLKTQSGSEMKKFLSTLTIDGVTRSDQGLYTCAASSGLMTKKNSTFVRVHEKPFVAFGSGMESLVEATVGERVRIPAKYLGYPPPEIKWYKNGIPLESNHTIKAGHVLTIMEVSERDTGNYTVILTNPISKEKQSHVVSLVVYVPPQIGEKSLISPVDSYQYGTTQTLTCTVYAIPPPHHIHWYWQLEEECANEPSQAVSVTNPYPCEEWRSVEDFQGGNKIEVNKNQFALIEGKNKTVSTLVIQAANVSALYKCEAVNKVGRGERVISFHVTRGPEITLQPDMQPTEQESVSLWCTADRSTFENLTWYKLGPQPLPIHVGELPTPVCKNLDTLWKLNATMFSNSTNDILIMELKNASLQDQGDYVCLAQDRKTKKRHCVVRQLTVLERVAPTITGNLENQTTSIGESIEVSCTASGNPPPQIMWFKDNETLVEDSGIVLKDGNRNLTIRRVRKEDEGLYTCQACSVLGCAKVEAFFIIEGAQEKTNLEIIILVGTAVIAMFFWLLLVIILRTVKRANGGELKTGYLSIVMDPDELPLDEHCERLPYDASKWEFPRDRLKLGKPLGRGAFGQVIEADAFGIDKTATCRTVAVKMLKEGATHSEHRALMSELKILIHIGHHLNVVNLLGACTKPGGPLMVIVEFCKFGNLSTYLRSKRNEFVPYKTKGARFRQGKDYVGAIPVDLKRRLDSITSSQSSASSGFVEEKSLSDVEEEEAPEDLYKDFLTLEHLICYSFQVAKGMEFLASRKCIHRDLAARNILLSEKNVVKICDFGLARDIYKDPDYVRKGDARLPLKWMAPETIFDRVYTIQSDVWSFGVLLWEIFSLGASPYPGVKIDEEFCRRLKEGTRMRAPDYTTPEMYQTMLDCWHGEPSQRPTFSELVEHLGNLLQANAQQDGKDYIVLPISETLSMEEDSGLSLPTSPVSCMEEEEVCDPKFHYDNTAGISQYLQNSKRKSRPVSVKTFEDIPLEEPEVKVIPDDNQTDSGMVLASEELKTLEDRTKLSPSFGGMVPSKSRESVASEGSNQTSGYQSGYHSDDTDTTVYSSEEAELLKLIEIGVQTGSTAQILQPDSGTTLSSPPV
# Chain of Lymphokine-activated killer T-cell-originated protein kinase (Q96KB5 whole entry): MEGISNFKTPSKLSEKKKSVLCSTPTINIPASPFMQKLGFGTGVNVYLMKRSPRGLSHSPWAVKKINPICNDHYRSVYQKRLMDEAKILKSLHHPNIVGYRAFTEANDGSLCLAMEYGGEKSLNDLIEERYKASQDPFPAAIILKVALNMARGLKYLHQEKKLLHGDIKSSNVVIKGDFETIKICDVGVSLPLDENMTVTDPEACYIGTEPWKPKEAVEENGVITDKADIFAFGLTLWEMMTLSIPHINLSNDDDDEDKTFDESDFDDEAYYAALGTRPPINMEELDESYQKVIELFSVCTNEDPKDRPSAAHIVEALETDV
# Chain of Protein S100-A4 (P26447 whole entry): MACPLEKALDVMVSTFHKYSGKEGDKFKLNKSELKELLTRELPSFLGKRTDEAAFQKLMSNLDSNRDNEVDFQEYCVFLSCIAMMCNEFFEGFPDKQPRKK
structure (smiles),measurement,setting,value
Cc1cc2ccccc2n1CCNC(=O)c1ccc(S(=O)(=O)N2CCCCC2)cc1,EC50,[1],> 20 µM (inactive)
same,EC50,[2],5.91 µM (active)
same,EC50,[3],6.53 µM (active)
same,EC50,[4],1 µM (active)
same,EC50,[5],13.6 µM (not active)
same,AC50,Protein S100-A4,6.69 µM (active)
N#Cc1cnc2c(Br)cnn2c1N,Ki,[6],79.4 µM (active)
same,Ki,[7],100 µM (active)
COc1ccc(-c2cc(C(=O)N(C3CCCCC3)C3CCCCC3)no2)cc1OC,EC50,[8],> 50 µM (inactive)
same,EC50,[9],> 50 µM (inactive)
Sc1nnc(NCCc2ccccc2)s1,IC50,[10],0.835 µM (active)
same,EC50,[11],> 104 µM (inactive)
same,IC50,[12],1.2 µM (active)
same,IC50,[13],> 99 µM (inactive)
same,IC50,[14],> 100 µM (inactive)
same,IC50,[15],> 99 µM (inactive)
same,IC50,[16],0.695 µM (active)
Cc1ccc(NC(=O)c2ccc(CN3CCN(C)CC3)cc2)cc1Nc1nccc(-c2cccnc2)n1 [IMATINIB],Ki,[17],> 7.94 µM (inactive)
same,Ki,[18],> 7.94 µM (inactive)
same,Ki,[19],> 1.58 µM (inactive)
same,Ki,[20],> 10 µM (inactive)
same,Ki,[21],> 3.98 µM (inactive)
same,Ki,[22],> 6.31 µM (inactive)
same,Ki,[23],> 10 µM (inactive)
same,Ki,[24],> 1.26 µM (inactive)
